“And” between values parts separate entries of the source, which are not always exact repeats. Identical values can stand only once. Toxic doses and inconclusive results are not listed. No stated cut-off is given here; in the data, active means T/C of 150% or more; inactive means T/C below 125%.
Test system: L1210 leukemia ip in BDF1 mice, survival T/C
Assay: NCI In Vivo Anticancer Drug Screen. Data for tumor model L1210 Leukemia (intraperitoneal) in B6D2F1 (BDF1) mice
Details: endpoint: mean survival time, higher = longer survival
Outline: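 Antitumor effect is assessed in tumor-bearing animals. Survival in the compound arm is compared with a vehicle-dosed control arm and expressed as their quotient.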

[1] = dose: 100.0 mg/kg/injection, schedule: Q01DX009 (ip), vehicle: Klucel (hydroxypropylcellulose) (HPC)
[2] = dose: 200.0 mg/kg/injection, schedule: Q01DX009 (ip), vehicle: Klucel (hydroxypropylcellulose) (HPC)
[3] = dose: 400.0 mg/kg/injection, schedule: Q01DX009 (ip), vehicle: Klucel (hydroxypropylcellulose) (HPC)
[4] = dose: 100.0 mg/kg/injection, schedule: Q01DX001 (ip), vehicle: Klucel (hydroxypropylcellulose) (HPC)
[5] = dose: 100.0 mg/kg/injection, schedule: Q04DX003 (ip), vehicle: Klucel (hydroxypropylcellulose) (HPC)
[6] = dose: 200.0 mg/kg/injection, schedule: Q01DX001 (ip), vehicle: Klucel (hydroxypropylcellulose) (HPC)
[7] = dose: 200.0 mg/kg/injection, schedule: Q04DX003 (ip), vehicle: Klucel (hydroxypropylcellulose) (HPC)
[8] = dose: 400.0 mg/kg/injection, schedule: Q01DX001 (ip), vehicle: Klucel (hydroxypropylcellulose) (HPC)
[9] = dose: 400.0 mg/kg/injection, schedule: Q04DX003 (ip), vehicle: Klucel (hydroxypropylcellulose) (HPC)
[10] = dose: 100.0 mg/kg/injection, schedule: Q04DX003 (ip), vehicle: saline with Tween-80
[11] = dose: 200.0 mg/kg/injection, schedule: Q04DX003 (ip), vehicle: saline with Tween-80
[12] = dose: 400.0 mg/kg/injection, schedule: Q04DX003 (ip), vehicle: saline with Tween-80

Measured: T/C

O=C(Nc1ccc(O)cc1)Nc1ccc(O)cc1
inactive: dose: 37.5 mg/kg/injection, schedule: Q01DX Z (ip), vehicle: carboxymethylcellulose (CMC) 103 % of control | dose: 53.0 mg/kg/injection, schedule: Q01DX Z (ip), vehicle: carboxymethylcellulose (CMC) 92 % of control | dose: 53.0 mg/kg/injection, schedule: Q01DX Z (ip), vehicle: other 105 % of control | dose: 75.0 mg/kg/injection, schedule: Q01DX Z (ip), vehicle: carboxymethylcellulose (CMC) 115 % of control | dose: 80.0 mg/kg/injection, schedule: Q01DX Z (ip), vehicle: carboxymethylcellulose (CMC) 93 % of control | dose: 80.0 mg/kg/injection, schedule: Q01DX Z (ip), vehicle: other 102 % of control | dose: 120.0 mg/kg/injection, schedule: Q01DX Z (ip), vehicle: carboxymethylcellulose (CMC) 92 % of control | dose: 120.0 mg/kg/injection, schedule: Q01DX Z (ip), vehicle: other 103 % of control | dose: 150.0 mg/kg/injection, schedule: Q01DX Z (ip), vehicle: carboxymethylcellulose (CMC) 103 % of control | dose: 180.0 mg/kg/injection, schedule: Q01DX Z (ip), vehicle: carboxymethylcellulose (CMC) 89 % of control | dose: 180.0 mg/kg/injection, schedule: Q01DX Z (ip), vehicle: other 102 % of control | dose: 270.0 mg/kg/injection, schedule: Q01DX Z (ip), vehicle: other 103 % of control | dose: 300.0 mg/kg/injection, schedule: Q01DX Z (ip), vehicle: carboxymethylcellulose (CMC) 98 % of control | dose: 404.0 mg/kg/injection, schedule: Q01DX Z (ip), vehicle: other 105 % of control

O=C(Nc1cc(C(F)(F)F)ccc1Cl)OCC(F)(F)F
inactive: [1] 97 % of control and 104 % of control | dose: 100.0 mg/kg/injection, schedule: Q04DX002 (ip), vehicle: Klucel (hydroxypropylcellulose) (HPC) 108 % of control and 91 % of control | [2] 105 % of control and 112 % of control | dose: 200.0 mg/kg/injection, schedule: Q04DX002 (ip), vehicle: Klucel (hydroxypropylcellulose) (HPC) 103 % of control and 104 % of control | [3] 94 % of control and 108 % of control | dose: 400.0 mg/kg/injection, schedule: Q04DX002 (ip), vehicle: Klucel (hydroxypropylcellulose) (HPC) 103 % of control and 107 % of control

CSc1ncnc2c1cnn2C1OC(CCC#N)C(O)C1O (centres undefined)
inactive: dose: 100.0 mg/kg/injection, schedule: Q01DX001 (ip), vehicle: saline 97 % of control | dose: 200.0 mg/kg/injection, schedule: Q01DX001 (ip), vehicle: saline 98 % of control

O=c1[nH]c2ccccc2o1
inactive: dose: 75.0 mg/kg/injection, schedule: Q01DX001 (ip), vehicle: Klucel (hydroxypropylcellulose) (HPC) 101 % of control | dose: 150.0 mg/kg/injection, schedule: Q01DX001 (ip), vehicle: Klucel (hydroxypropylcellulose) (HPC) 100 % of control | dose: 200.0 mg/kg/injection, schedule: Q04DX002 (ip), vehicle: saline 92 % of control | dose: 300.0 mg/kg/injection, schedule: Q01DX001 (ip), vehicle: Klucel (hydroxypropylcellulose) (HPC) 103 % of control | dose: 400.0 mg/kg/injection, schedule: Q04DX002 (ip), vehicle: saline 114 % of control

O=c1c2c([nH]c3ccccc13)CCCC2
inactive: [4] 97 % of control | [5] 97 % of control | [6] 88 % of control | [7] 94 % of control | [8] 93 % of control | [9] 101 % of control

O=C1c2cccc([N+](=O)[O-])c2C(=O)C1c1ccccn1 (centres undefined)
inactive: [10] 101 % of control | [11] 90 % of control | [12] 101 % of control

Cc1cccc(C)c1C(Cl)CS(=O)(=O)c1ccccc1 (centres undefined)
inactive: [5] 102 % of control | [7] 107 % of control | [9] 107 % of control

CCOC(=O)c1ccc[n+]([O-])c1
inactive: dose: 100.0 mg/kg/injection, schedule: Q04DX003 (ip), vehicle: saline 94 % of control | dose: 200.0 mg/kg/injection, schedule: Q04DX003 (ip), vehicle: saline 95 % of control | dose: 400.0 mg/kg/injection, schedule: Q04DX003 (ip), vehicle: saline 94 % of control

CCCCCC(C)N (centres undefined)
inactive: dose: 5.0 mg/kg/injection, schedule: Q01DX001 (ip), vehicle: saline 101 % of control | dose: 10.0 mg/kg/injection, schedule: Q01DX001 (ip), vehicle: saline 101 % of control | dose: 20.0 mg/kg/injection, schedule: Q01DX001 (ip), vehicle: saline 95 % of control | dose: 40.0 mg/kg/injection, schedule: Q01DX001 (ip), vehicle: saline 103 % of control | dose: 80.0 mg/kg/injection, schedule: Q01DX001 (ip), vehicle: saline 101 % of control

O=C1CC(=O)N(c2ccccc2)O1
inactive: [10] 92 % of control | [11] 112 % of control | [12] 91 % of control

O=Cc1ccc(OC(=O)Nc2ccc([N+](=O)[O-])cc2)cc1
inactive: [1] 92 % of control | [2] 90 % of control | [3] 95 % of control

CCN(CC)S(=O)(=O)c1cccc(C(=O)CC(O)(C(F)(F)F)C(F)(F)F)c1
inactive: [10] 94 % of control | [11] 102 % of control | [12] 108 % of control

O=S(=O)(Cc1ccc(Cl)cc1)Cc1ccc(Cl)cc1
inactive: dose: 100.0 mg/kg/injection, schedule: Q01DX009 (ip), vehicle: saline sonified 93 % of control | [5] 95 % of control | dose: 200.0 mg/kg/injection, schedule: Q01DX009 (ip), vehicle: saline sonified 93 % of control | [7] 92 % of control | dose: 400.0 mg/kg/injection, schedule: Q01DX009 (ip), vehicle: saline sonified 93 % of control | [9] 103 % of control

COC[P+](c1ccccc1)(c1ccccc1)c1ccccc1
inactive: dose: 1.25 mg/kg/injection, schedule: Q01DX001 (ip), vehicle: Klucel (hydroxypropylcellulose) (HPC) 96 % of control | dose: 1.25 mg/kg/injection, schedule: Q01DX009 (ip), vehicle: Klucel (hydroxypropylcellulose) (HPC) 90 % of control | dose: 2.5 mg/kg/injection, schedule: Q01DX001 (ip), vehicle: Klucel (hydroxypropylcellulose) (HPC) 105 % of control | dose: 2.5 mg/kg/injection, schedule: Q01DX009 (ip), vehicle: Klucel (hydroxypropylcellulose) (HPC) 92 % of control | dose: 5.0 mg/kg/injection, schedule: Q01DX001 (ip), vehicle: Klucel (hydroxypropylcellulose) (HPC) 97 % of control | dose: 5.0 mg/kg/injection, schedule: Q01DX009 (ip), vehicle: Klucel (hydroxypropylcellulose) (HPC) 96 % of control | dose: 10.0 mg/kg/injection, schedule: Q01DX001 (ip), vehicle: Klucel (hydroxypropylcellulose) (HPC) 100 % of control | dose: 10.0 mg/kg/injection, schedule: Q01DX009 (ip), vehicle: Klucel (hydroxypropylcellulose) (HPC) 113 % of control

CCCN(CCC)CCCCCO
inactive: dose: 50.0 mg/kg/injection, schedule: Q01DX009 (ip), vehicle: saline with Tween-80 102 % of control | dose: 100.0 mg/kg/injection, schedule: Q01DX009 (ip), vehicle: saline with Tween-80 106 % of control | [10] 94 % of control | dose: 200.0 mg/kg/injection, schedule: Q01DX009 (ip), vehicle: saline with Tween-80 102 % of control | [11] 102 % of control

NC(=O)Nc1ccc2c(c1)Cc1cc(F)ccc1-2
inactive: dose: 87.0 mg/kg/injection, schedule: Q01DX001 (ip), vehicle: other 100 % of control | dose: 89.0 mg/kg/injection, schedule: Q01DX001 (ip), vehicle: carboxymethylcellulose (CMC) 97 % of control and 109 % of control | dose: 100.0 mg/kg/injection, schedule: Q01DX001 (ip), vehicle: carboxymethylcellulose (CMC) 97 % of control | dose: 132.0 mg/kg/injection, schedule: Q01DX001 (ip), vehicle: other 97 % of control | dose: 133.0 mg/kg/injection, schedule: Q01DX001 (ip), vehicle: carboxymethylcellulose (CMC) 100 % of control and 112 % of control | dose: 200.0 mg/kg/injection, schedule: Q01DX001 (ip), vehicle: carboxymethylcellulose (CMC) 104 % of control and 105 % of control | dose: 200.0 mg/kg/injection, schedule: Q01DX001 (ip), vehicle: other 92 % of control | dose: 300.0 mg/kg/injection, schedule: Q01DX001 (ip), vehicle: carboxymethylcellulose (CMC) 101 % of control and 108 % of control | dose: 300.0 mg/kg/injection, schedule: Q01DX001 (ip), vehicle: other 97 % of control | dose: 400.0 mg/kg/injection, schedule: Q01DX001 (ip), vehicle: carboxymethylcellulose (CMC) 105 % of control

NC(=O)Cc1ccccc1N
inactive: [4] 98 % of control | [6] 114 % of control | [8] 98 % of control

FC(F)(F)c1ccc(Cl)c(NC2=NCCS2)c1
inactive: [4] 114 % of control | [5] 97 % of control | [6] 103 % of control | [7] 98 % of control | [8] 97 % of control | [9] 88 % of control
